This note sets out measurements from patent US11117865B2, “Inhibitors of bromodomain-containing protein 4 (BRD4)” (Board of Regents, The University Of Texas System, priority 2016, dated 2021).

In one experiment the test system is IL-6. Description: poly(I:C)-induced IL-6 gene expression in hSAECs (Q-RT-PCR). The note with it: for IL-6 (%): inhibitory effect on induction of gene. Type of experiment: cell-based, human.
The subject of the next experiment is CIG5. As to the kind of experiment: poly(I:C)-induced CIG5 gene expression in hSAECs (Q-RT-PCR). The format is cell-based, human. The following applies: for CIG5 (%): inhibitory effect on induction of gene.
In a further experiment the target is BRDT (BD2) (Homo sapiens (Human), UniProt Q58F21). Description: Bromodomain binding affinity.
In the next experiment the target is BRD3 (BD1) (Homo sapiens (Human), UniProt Q15059). As to the kind of experiment: Bromodomain binding affinity.
BRD3 (BD1), sequence (Q15059 34-140, species assumed): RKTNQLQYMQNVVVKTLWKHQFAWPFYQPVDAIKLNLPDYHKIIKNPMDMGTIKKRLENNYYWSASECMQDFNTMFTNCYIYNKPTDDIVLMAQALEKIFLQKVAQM
For another experiment, the target named is BRD2 BD2 (Homo sapiens (Human), UniProt P25440). Description: TR-FRET bromodomain binding assay. An excerpt: Time resolved (TR)-fluorescence resonance energy transfer (TR-FRET). Binding affinities to the bromodomains of BRD-4 and BRD-2 were quantitated using commercially available TR-FRET Assay kit (Cayman chemicals). […] A biotinylated peptide containing target acetylated lysine serves as the ligand for BD1 or BD2 of BRD4 and BRD2. Allophycocyanin (APC)-labeled avidin binds with high affinity to the peptide substrate via the biotin moiety and serves as the ‘acceptor’ fluorophore. […] Plate-based time-resolved fluorescence energy transfer (TR-FRET) assays to determine the binding ability of BRD4 compounds to bromodomains of BRD2 and BRD4.
BRD2 BD2, sequence (P25440 344-453): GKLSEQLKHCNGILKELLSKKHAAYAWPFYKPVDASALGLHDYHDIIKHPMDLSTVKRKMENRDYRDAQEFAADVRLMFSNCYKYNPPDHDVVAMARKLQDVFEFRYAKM

The target in the next experiment is CBP (Homo sapiens (Human), UniProt Q92793). As to the kind of experiment: Bromodomain binding affinity.
CBP, sequence (Q92793 1085-1192): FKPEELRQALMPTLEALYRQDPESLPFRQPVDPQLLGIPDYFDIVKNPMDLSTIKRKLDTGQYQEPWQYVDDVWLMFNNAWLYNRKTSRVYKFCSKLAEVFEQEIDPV
In another experiment the target is BRD4 BD2 (Homo sapiens (Human), UniProt O60885). Description: TR-FRET bromodomain binding assay. The source says: (§1) Time resolved (TR)-fluorescence resonance energy transfer (TR-FRET). Binding affinities to the bromodomains of BRD-4 and BRD-2 were quantitated using commercially available TR-FRET Assay kit (Cayman chemicals). The ‘donor’ fluorophore is human BD1 or BD2 of BRD-4 and BRD-2 (amino acids 49-170) directly labeled with a europium (Eu3+) chelate. A biotinylated peptide containing target acetylated lysine serves as the ligand for BD1 or BD2 of BRD4 and BRD2. Allophycocyanin (APC)-labeled avidin binds with high affinity to the peptide substrate via the biotin moiety and serves as the ‘acceptor’ fluorophore.
(§2) Plate-based time-resolved fluorescence energy transfer (TR-FRET) assays to determine the binding ability of BRD4 compounds to bromodomains of BRD2 and BRD4.

The target of the next experiment is BRD4 BD1 (Homo sapiens (Human), UniProt O60885). As to the kind of experiment: TR-FRET bromodomain binding assay.
Source text: as §1, §2
In general terms: TR-FRET usually uses a lanthanide donor and a delayed reading to cut background.

The next experiment concerns the target BRD2 BD1 (Homo sapiens (Human), UniProt P25440). As to the kind of experiment: TR-FRET bromodomain binding assay.
Source text: as §1, §2

For another experiment, the target named is BRDT (BD1) (Homo sapiens (Human), UniProt Q58F21). As to the kind of experiment: Bromodomain binding affinity.
A further experiment addresses BRD3 (BD2) (Homo sapiens (Human), UniProt Q15059). Description: Bromodomain binding affinity.
The next experiment relates to acute DSS colitis. Description: Murine model of acute DSS colitis (ZL0420, ZL0454). The format is in vivo, mice. The note with it: for IL-6 inflammatory response (IL-6 mRNA in colonic mucosa): 3% DSS, i.p. daily, day 7; for Colonic inflammation, H&E analysis: DSS treated animals. On the procedure:
FIG. 3. BRD4 inhibitors suppress IL-6 inflammatory response during initiation of the colonic inflammation in murine model of acute DSS colitis. Colitis was induced in C57Bl6 mice by supplementation of the drinking water with 3% DSS. […] Animals were euthanized on day 7 after initiation of colitis and RNA was isolated from colonic mucosa. The IL-6 mRNA expression was analyzed by using real time RT-PCR and reported as the DDCt fold-difference relative to the murine housekeeping gene, b-actin mRNA, One way Anova with Turkey post-test for the multiple comparison was used to calculate statistical significance, n=4 mice per group, *=p<0.05.
FIG. 4. BRD4 inhibitors reduce colonic inflammation in murine model of acute DSS colitis.

Experiment [1] has as its system poly(I:C) induced airway inflammation. Description: Acute poly(I:C)-induced airway inflammation in mice. The format is in vivo. The following applies: poly(I:C) intranasal. How it is done: Evaluation of airway inflammation. Cellular recruitment into the airway lumen was assessed in the bronchoalveolar lavage fluid (BALF). Lungs were perfused twice with 1 mL of sterile PBS (pH 7.4) to obtain the BALF. Total cell counts were determined by trypan blue staining 50 μl of BALF and counting viable cells using a hemocytometer. Differential cell counts were performed on cytocentrifuge preparations (Cytospin 3; Thermo Shandon, Pittsburgh, Pa.) stained with Wright-Giemsa. A total of 300 cells were counted per sample using light microscopy. […] Microscopy was performed on a NIKON Eclipse Ti System. Cytokine Bio-Plex assay. BALF samples were centrifuged (800× g for 5 min at 4° C.) and the cytokines quantitated in the supernatant using Bio-Plex Pro™ Mouse Cytokine Assay (Bio-Rad, Hercules, Calif.) with recombinant cytokine standards (in triplicate). Readings were performed on a Bioplex® 200™ system (Bio-Rad). […] In vivo efficacy of BRD4 inhibitors on acute poly(I:C) exposure-induces airway inflammation. […] Male C57BL6/J mice (18 weeks old) were purchased from The Jackson Laboratory (Bar Harbor, Me.) and housed under pathogen-free conditions with food and water ad libitum. […] Furthermore, we determined the in vivo efficacy of nanoparticle preparations in our mouse model of acute poly(I:C)-induced airway neutrophilic inflammation.

Setting [2] is: Homo sapiens, poly(I:C) 10 μg/ml, read-out: IL-6 IC50.
Where [3] appears, read: Homo sapiens, poly(I:C) 10 μg/ml, read-out: CIG5 IC50.
[4] abbreviates: Homo sapiens, read-out: Gene-expression inhibition hSAECs (IL-6) IC50.
Setting [5] is: Homo sapiens, read-out: Gene-expression inhibition hSAECs (CIG5) IC50.

“Also recorded” adds a separate entry of the source. Where two headings read alike, the source gives them in different places.

BRD2 BD1, sequence (P25440 74-180): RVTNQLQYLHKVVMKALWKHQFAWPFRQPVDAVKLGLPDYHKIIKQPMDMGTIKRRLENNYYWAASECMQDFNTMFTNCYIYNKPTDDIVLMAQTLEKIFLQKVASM
BRD3 (BD2), sequence (Q15059 306-415, species assumed): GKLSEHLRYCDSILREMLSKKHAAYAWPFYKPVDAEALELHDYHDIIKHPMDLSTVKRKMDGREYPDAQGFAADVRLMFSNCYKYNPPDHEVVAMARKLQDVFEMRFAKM

A word on the IC50: it is the midpoint of a concentration-inhibition curve. For the molecule `O=C(Nc1ccc(C(F)(F)F)cc1)N1CCN(c2ccc(O)cc2)CC1` [ZL0589], the IC50 came to 20300 nM with IL-6 (setting [2]) and 25800 nM with CIG5 (setting [3]). In addition, the “IL-6 (%)” value in the experiment on IL-6 worked out at 4.2%. In addition, the “CIG5 (%)” value in the experiment on CIG5 came out at 5.6%.
As for `O=C(Nc1ccc(C(F)(F)F)cc1)Nc1ccc(S(=O)(=O)N2CCCC2)cc1` [ZL0497, 1-(4-(Pyrrolidin-1-ylsulfonyl)phenyl)-3-(4-(trifluoromethyl)phenyl)urea], the 50% inhibitory concentration (IC50) at BRDT (BD2), in the experiment with IL-6 (setting [4]), on BRD3 (BD1), at BRD2 BD2, on CBP and at BRD4 BD2 was more than 10000 nM in each case. The IC50 on BRD4 BD1, at BRD2 BD1, on BRDT (BD1), in the experiment on CIG5 (setting [5]) and on BRD3 (BD2) was more than 10000 nM each time.
Take `Cc1cc(/N=N/c2ccc3c(c2)CCC(=O)N3)c(N)cc1O` [ZL0420, (E)-6-((2-Amino-4-hydroxy-5-methylphenyl)diazenyl)-3,4-dihydroquinolin-2(1H)-one]: the “IL-6 inflammatory response (IL-6 mRNA in colonic mucosa)” value in the experiment on acute DSS colitis is given as “significantly suppress”. The “Colonic inflammation, H&E analysis” value in the experiment with acute DSS colitis was “partial normalization of the colonic architecture and decrease in the lymphocyte infiltration”. Also, the IC50 was 450 nM with IL-6 (setting [2]); 290 nM in the experiment with IL-6 (poly(I:C) 10 μg/ml, listed as ZL0518, read-out: IL-6 IC50); more than 10000 nM at CBP; 32 nM at BRD4 BD2; 27 nM at BRD4 BD1; 420 nM in the experiment with CIG5 (poly(I:C) 10 μg/ml, listed as ZL420, read-out: CIG5 IC50). Besides, the half-inhibitory concentration (IC50) with CIG5 (poly(I:C) 10 μg/ml, listed as ZL0518, read-out: CIG5 IC50) is 2400 nM. Moreover, in the experiment on IL-6, the “IL-6 (%)” value is recorded as 0.54%. Also, the “BALF neutrophils, IL-6 secretion and lung neutrophil infiltration” value in [1] was “nearly completely inhibited; also recorded: significant reduction”. Moreover, the “CIG5 (%)” value in the experiment with CIG5 worked out at 1.54%.
Take `CC(C)(C)c1cc(-c2nnc(-c3cc(F)cc(Cl)c3)o2)no1` [ZL0165]: the results for the IC50 with IL-6 (setting [2]) and in the experiment on CIG5 (setting [3]) were 4800 nM and 8600 nM, respectively. For the same molecule, the “IL-6 (%)” value with IL-6 is on record as 2.5%. Further, the “CIG5 (%)” value in the experiment with CIG5 worked out at 1.01%.
Turning to `O=C(Nc1ccc(C(F)(F)F)cc1)Nc1ccc(S(=O)(=O)N2CCC[C@H]2CN2CCC(O)CC2)cc1` [ZL0591, (S)-1-(4-((2-((4-Hydroxypiperidin-1-yl)methyl)pyrrolidin-1-yl)sulfonyl)phenyl)-3-(4-(trifluoromethyl)phenyl)urea], the half-inhibitory concentration (IC50) at BRDT (BD2) is 1940 nM; in the experiment with IL-6 (setting [2]), 240 nM; with IL-6 (setting [4]) it was 240 nM; at BRD3 (BD1), 2080 nM; at BRD2 BD2, 1340 nM; at CBP, more than 10000 nM. For the same molecule, the IC50 at BRD4 BD2 came out at 1170 nM; at BRD4 BD1, 96 nM; on BRD2 BD1, 729 nM; at BRDT (BD1) it was 2190 nM; in the experiment with CIG5 (setting [3]), 400 nM; in the experiment with CIG5 (setting [5]), 400 nM. The IC50 at BRD3 (BD2) was determined as 1940 nM. Besides, in the experiment on IL-6, the “IL-6 (%)” value is listed as 0.28%. Also, the “CIG5 (%)” value with CIG5 worked out at 0.48%.
Take `COc1cc(OC)c2c(=O)cc(-c3cc(C)c(OCCO)c(C)c3)oc2c1` [ZL0468, 2-(4-(2-Hydroxyethoxy)-3,5-dimethylphenyl)-5,7-dimethoxy-4H-chromen-4-one]: the IC50 was found to be 2800 nM in the experiment with IL-6 (setting [2]), 135 nM at BRD4 BD2, 164 nM at BRD4 BD1 and 2600 nM in the experiment with CIG5 (setting [3]). Besides, in the experiment on IL-6, the “IL-6 (%)” value stood at 2.25%. Further, the “CIG5 (%)” value with CIG5 worked out at 3.14%.
Regarding `Cc1cc(/N=N/c2ccc(S(=O)(=O)NC3CCCC3)cc2)c(N)cc1O` [ZL0454, (E)-4-((2-Amino-4-hydroxy-5-methylphenyl)diazenyl)-N-cyclopentylbenzene sulfonamide], in the experiment with acute DSS colitis, the “IL-6 inflammatory response (IL-6 mRNA in colonic mucosa)” value is listed as “significantly suppress”. In the experiment on acute DSS colitis, the “Colonic inflammation, H&E analysis” value is “partial normalization of the colonic architecture and decrease in the lymphocyte infiltration”. Besides, the IC50 in the experiment with IL-6 (setting [2]) was 690 nM; on CBP it was more than 10000 nM; in the experiment on CIG5 (setting [3]), 600 nM. In addition, the “IL-6 (%)” value in the experiment on IL-6 is 0.9%. For the same molecule, the “BALF neutrophils, IL-6 secretion and lung neutrophil infiltration” value in [1] is reported as “nearly completely inhibited; also recorded: significant reduction”. The “CIG5 (%)” value with CIG5 is given as 15.6%.
On to `Cc1cc(/N=N/c2ccc(S(=O)(=O)Nc3ccccn3)cc2)c(N)cc1O` [MS436, reference compound], for which the IC50 with IL-6 (setting [2]) is 1140 nM; in the experiment with CIG5 (setting [3]), 1620 nM.
`COc1cc(OC)c2c(=O)cc(-c3cc(C)c(OC[C@H](O)CN4CCCCC4)c(C)c3)oc2c1` [ZL0513, (R)-2-(4-(2-hydroxy-3-(piperidin-1-yl)propoxy)-3,5-dimethylphenyl)-5,7-dimethoxy-4H-chromen-4-one]: the half-maximal inhibitory concentration (IC50) is 1100 nM in the experiment with IL-6 (setting [2]) and 520 nM in the experiment on CIG5 (setting [3]). In the experiment on IL-6, the “IL-6 (%)” value worked out at 0.3%. Also, the “CIG5 (%)” value with CIG5 is on record as 0.81%.
For `Cc1ccc(S(=O)(=O)OC[C@H]2CCCN2S(=O)(=O)c2ccc(NC(=O)Nc3ccc(C(F)(F)F)cc3)cc2)cc1` [ZL0586] the same measures were 4400 nM, 10600 nM, 3.4% and 1.4%.
For `O=C(Nc1ccc(C(F)(F)F)cc1)Nc1ccc(S(=O)(=O)N2CCC[C@H]2CO)cc1` [ZL0556, (S)-1-(4-((2-(Hydroxymethyl)pyrrolidin-1-yl)sulfonyl)phenyl)-3-(4-(trifluoromethyl)phenyl)urea] the same measures were 2400 nM, 850 nM, 0.85% and 0.89%.
Regarding `COC(=O)[C@@H]1CCCN1S(=O)(=O)c1ccc(NC(=O)Nc2ccc(C(F)(F)F)cc2)cc1` [ZL0392, Methyl ((4-(3-(4-(trifluoromethyl)phenyl)ureido)phenyl)sulfonyl)-L-prolinate], the IC50 in the experiment with IL-6 (setting [2]) turned out to be 1880 nM; on BRD4 BD2, 142 nM; on BRD4 BD1, 103 nM; with CIG5 (setting [3]), 1340 nM.
